Key:
MET = MET biochemical kinase assay; parameters: species or system human; concentration or dose not given beside the values
How it was run: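 Plates coated with anti-rabbit Fc bind a rabbit anti-MET antibody that captures receptor from cell lysates; unbound protein is washed off before compound and ATP-containing kinase buffer go in.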

FLK-1 receptor = target: T1, FLK-1 receptor (Mus musculus, UniProt P35918); assay: FLK-1 ELISA (kinase activity of the FLK-1 receptor in FLK-1/NIH3T3 cells, VEGF stimulated); format: cell-based
T1 construct: expressed in transfected cells; host or cells: NIH3T3 C7#3
How it was run: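 NIH3T3 C7#3 cells expressing FLK-1 were seeded at 25.000 cells/well, serum-starved overnight in 0.1% FBS, then treated with compound for two hours at 37°C (final DMSO 0.5%) before VEGF stimulation. Receptor was captured on anti-rabbit IgG-coated ELISA plates bearing affinity-purified anti-FLK-1 antiserum.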

PDGF-R = PDGF-R (Homo sapiens, UniProt P09619); assay: PDGF-R ELISA; format: cell-based
Excerpt: A PDGF-R ELISA is described in International Patent Publication No. WO 96/40116, published December 19, 1996 by Tang et al.

PDGF-R, sequence (P09619 33-1106, species assumed): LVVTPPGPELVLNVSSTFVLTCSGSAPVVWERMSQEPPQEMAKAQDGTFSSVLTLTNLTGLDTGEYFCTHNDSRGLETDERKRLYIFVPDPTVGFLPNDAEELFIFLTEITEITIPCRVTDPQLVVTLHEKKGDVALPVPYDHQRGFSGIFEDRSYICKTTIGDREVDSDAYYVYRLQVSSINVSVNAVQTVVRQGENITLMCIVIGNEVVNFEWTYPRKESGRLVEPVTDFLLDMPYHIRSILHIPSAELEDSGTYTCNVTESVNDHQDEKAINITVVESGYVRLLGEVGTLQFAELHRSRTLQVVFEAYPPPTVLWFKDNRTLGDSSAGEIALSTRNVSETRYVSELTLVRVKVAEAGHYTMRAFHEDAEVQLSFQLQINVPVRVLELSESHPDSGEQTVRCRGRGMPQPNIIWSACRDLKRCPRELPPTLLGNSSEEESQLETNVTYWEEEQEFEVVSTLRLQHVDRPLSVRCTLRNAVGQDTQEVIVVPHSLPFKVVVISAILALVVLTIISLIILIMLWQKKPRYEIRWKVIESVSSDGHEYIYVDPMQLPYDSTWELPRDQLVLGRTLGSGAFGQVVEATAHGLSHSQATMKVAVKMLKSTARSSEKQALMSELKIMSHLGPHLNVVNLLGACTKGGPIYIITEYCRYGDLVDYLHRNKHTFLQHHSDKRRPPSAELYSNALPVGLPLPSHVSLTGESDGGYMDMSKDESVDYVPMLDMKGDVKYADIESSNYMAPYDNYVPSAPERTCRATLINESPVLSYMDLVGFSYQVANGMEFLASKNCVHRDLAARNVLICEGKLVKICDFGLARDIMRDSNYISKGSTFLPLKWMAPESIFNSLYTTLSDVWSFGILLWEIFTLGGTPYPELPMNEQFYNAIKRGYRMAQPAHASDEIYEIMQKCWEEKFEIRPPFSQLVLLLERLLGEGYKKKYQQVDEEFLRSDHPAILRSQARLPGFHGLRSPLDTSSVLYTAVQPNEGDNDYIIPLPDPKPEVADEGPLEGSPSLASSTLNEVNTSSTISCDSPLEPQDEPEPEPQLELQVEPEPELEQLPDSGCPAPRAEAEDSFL
T1 sequence (P35918 20-1345): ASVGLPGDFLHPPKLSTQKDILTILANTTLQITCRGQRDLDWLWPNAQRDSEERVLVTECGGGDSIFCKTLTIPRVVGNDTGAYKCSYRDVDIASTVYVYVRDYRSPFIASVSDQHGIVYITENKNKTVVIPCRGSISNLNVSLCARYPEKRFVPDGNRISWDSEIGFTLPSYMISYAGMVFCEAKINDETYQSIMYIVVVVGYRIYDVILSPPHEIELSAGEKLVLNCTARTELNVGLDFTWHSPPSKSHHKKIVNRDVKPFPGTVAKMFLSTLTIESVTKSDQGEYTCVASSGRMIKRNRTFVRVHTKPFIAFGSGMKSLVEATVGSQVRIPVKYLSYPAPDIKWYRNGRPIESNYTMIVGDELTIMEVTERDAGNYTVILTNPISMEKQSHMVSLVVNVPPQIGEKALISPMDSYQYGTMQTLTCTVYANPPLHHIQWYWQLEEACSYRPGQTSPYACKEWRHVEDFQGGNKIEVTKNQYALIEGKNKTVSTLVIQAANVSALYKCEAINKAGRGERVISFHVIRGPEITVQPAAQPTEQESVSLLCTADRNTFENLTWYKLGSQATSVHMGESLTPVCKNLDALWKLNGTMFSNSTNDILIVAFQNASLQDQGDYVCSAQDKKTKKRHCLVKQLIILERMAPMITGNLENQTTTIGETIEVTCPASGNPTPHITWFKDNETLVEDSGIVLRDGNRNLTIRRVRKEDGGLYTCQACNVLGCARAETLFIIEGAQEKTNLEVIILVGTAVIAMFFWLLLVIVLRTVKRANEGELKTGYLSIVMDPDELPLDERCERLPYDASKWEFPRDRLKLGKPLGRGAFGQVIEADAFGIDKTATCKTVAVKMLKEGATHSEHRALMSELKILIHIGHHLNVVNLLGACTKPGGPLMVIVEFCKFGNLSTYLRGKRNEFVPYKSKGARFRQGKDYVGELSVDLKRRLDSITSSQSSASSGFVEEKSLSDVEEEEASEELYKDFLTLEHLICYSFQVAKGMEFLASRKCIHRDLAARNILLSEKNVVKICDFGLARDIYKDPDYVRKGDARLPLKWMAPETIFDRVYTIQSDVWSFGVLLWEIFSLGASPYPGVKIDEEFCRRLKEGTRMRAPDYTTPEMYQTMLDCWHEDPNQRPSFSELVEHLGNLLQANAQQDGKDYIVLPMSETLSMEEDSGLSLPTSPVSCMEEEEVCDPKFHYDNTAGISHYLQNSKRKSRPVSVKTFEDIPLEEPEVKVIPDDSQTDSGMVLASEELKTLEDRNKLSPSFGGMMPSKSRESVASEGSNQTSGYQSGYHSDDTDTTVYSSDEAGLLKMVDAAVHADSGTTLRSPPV

SMILES	Met Kinase % Inhibition (MET)	Fik Kinase %Inhibition (FLK-1 receptor)	PDGF Kinase %Inhibition (PDGF-R)
COc1cc(C=C2C(=O)Nc3c(Br)cc(Br)cc32)cc(OC)c1 [10728/A04]	28.5%	-3.5%	15.6%
COc1cc(N(C)C)ccc1C=C1C(=O)Nc2c(Br)cc(Br)cc21 [10728/A05]	31.8%	-10.8%	4.5%
O=C1Nc2c(Br)cc(Br)cc2C1=Cc1ccc2c(c1)Cc1ccccc1-2 [10728/A06]	19.7%	-10.4%	-3.1%
O=C1Nc2c(Br)cc(Br)cc2C1=Cc1cccc(C(F)(F)F)c1F [10728/A07]	28.5%	-21.6%	31.1%
O=C1Nc2c(Br)cc(Br)cc2C1=Cc1cc(C(F)(F)F)ccc1F [10728/A08]	40.2%	-1.4%	0.5%
O=C1Nc2c(Br)cc(Br)cc2C1=Cc1c(F)cccc1C(F)(F)F [10728/A09]	53.1%	-5.5%	10.3%
O=C(O)COc1ccccc1C=C1C(=O)Nc2c(Br)cc(Br)cc21 [10728/A10]	77.2%	-16.3%	1.8%
COc1cc(C=C2C(=O)Nc3c(Br)cc(Br)cc32)cc2c1OCO2 [10728/A11]	58.8%	-2.3%	-9.3%
COc1ccc(OC)c(C=C2C(=O)Nc3ccc(I)cc32)c1 [10728/B02]	61.2%	-11.1%	-0.4%
COc1cccc(OC)c1C=C1C(=O)Nc2ccc(I)cc21 [10728/B03]	74.4%	-1.3%	10.3%
COc1cc(C=C2C(=O)Nc3ccc(I)cc32)cc(OC)c1 [10728/B04]	67.2%	-6.0%	9.8%
COc1cc(N(C)C)ccc1C=C1C(=O)Nc2ccc(I)cc21 [10728/B05]	60.4%	-12.3%	9.4%
O=C1Nc2ccc(I)cc2C1=Cc1cccc(C(F)(F)F)c1F [10728/B07]	82.2%	31.4%	20.9%
O=C1Nc2ccc(I)cc2C1=Cc1cc(C(F)(F)F)ccc1F [10728/B08]	77.0%	14.8%	-6.6%
O=C1Nc2ccc(I)cc2C1=Cc1c(F)cccc1C(F)(F)F [10728/B09]	81.7%	1.7%	-0.4%
O=C(O)COc1ccccc1C=C1C(=O)Nc2ccc(I)cc21 [10728/B10]	79.3%	3.9%	2.7%
COc1cc(C=C2C(=O)Nc3ccc(I)cc32)cc2c1OCO2 [10728/B11]	80.3%	-1.0%	-12.4%
COc1ccc(OC)c(C=C2C(=O)Nc3ccc(Br)c(C)c32)c1 [10728/C02]	15.5%	-32.1%	42.3%
COc1cccc(OC)c1C=C1C(=O)Nc2ccc(Br)c(C)c21 [10728/C03]	16.9%	10.5%	24.9%
COc1cc(C=C2C(=O)Nc3ccc(Br)c(C)c32)cc(OC)c1 [10728/C04]	33.6%	-0.0%	27.2%
COc1cc(N(C)C)ccc1C=C1C(=O)Nc2ccc(Br)c(C)c21 [10728/C05]	33.7%	-21.7%	23.2%
